Source: ChEMBL document CHEMBL3585300, “Inhibition of Cathepsin K: A Novel and Promising Treatment for Osteoporosis” (ACS Med Chem Lett, 2015)

Key:
[1] = molecular target: T1, Cathepsin K (Homo sapiens) (UniProt P43235); assay: Inhibition of human cathepsin K incubated for 15 mins using Z-Leu-Arg-AMC substrate by spectrofluorometry
T1 sequence (whole entry): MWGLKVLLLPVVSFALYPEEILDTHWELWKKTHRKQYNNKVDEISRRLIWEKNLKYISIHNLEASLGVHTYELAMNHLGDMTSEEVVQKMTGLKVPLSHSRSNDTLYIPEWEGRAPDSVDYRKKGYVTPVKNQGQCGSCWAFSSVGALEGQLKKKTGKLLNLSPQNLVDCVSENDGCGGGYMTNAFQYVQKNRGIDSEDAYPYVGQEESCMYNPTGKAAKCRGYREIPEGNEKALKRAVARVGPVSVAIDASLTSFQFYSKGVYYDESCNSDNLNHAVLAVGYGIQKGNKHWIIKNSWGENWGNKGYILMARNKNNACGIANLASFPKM

[2] = molecular target: T2, Cathepsin F (Homo sapiens) (UniProt Q9UBX1); assay: Inhibition of human cathepsin F incubated for 15 mins using Z-Phe-Arg-AMC substrate by spectrofluorometry
T2 sequence (whole entry): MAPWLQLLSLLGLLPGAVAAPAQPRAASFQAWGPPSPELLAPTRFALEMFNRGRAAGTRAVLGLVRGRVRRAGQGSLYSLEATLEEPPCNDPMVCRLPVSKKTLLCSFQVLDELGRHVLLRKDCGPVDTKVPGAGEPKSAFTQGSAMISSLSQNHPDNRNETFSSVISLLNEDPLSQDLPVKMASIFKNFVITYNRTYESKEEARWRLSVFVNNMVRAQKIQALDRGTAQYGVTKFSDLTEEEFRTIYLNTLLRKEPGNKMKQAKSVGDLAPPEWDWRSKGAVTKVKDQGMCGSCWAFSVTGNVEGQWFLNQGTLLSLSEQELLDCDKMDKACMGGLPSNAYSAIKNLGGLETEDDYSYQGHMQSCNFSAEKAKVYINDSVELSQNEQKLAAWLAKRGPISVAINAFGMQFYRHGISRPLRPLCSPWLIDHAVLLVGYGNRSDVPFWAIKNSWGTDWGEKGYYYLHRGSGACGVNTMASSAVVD

IP [1] [nM]	IP [2] [nM]	Structure (SMILES)
5.8	1000	N#CC1(NC(=O)[C@@H]2CCCC[C@H]2c2nc(C3CC(F)(F)C3)sc2-c2ccc(N3CCS(=O)(=O)CC3)cc2)CC1
1.7	3330	N#CC1(NC(=O)[C@@H]2CCCC[C@H]2c2nc(-c3cccc(C4CCOCC4)c3)sc2-c2ccc(N3CCS(=O)(=O)CC3)cc2)CC1
0.7	851	CC(C)(C)c1nc([C@@H]2CCCC[C@H]2C(=O)NCC#N)c(-c2ccc(N3CCS(=O)(=O)CC3)cc2)s1
2.8	3140	C[C@@H](C#N)NC(=O)[C@@H]1C[C@@H](F)CC[C@H]1c1nc(C2(C(F)(F)F)CC2)sc1-c1ccc(N2CCS(=O)(=O)CC2)cc1
